In paper PMC9182199, “Borylated 2,3,4,5-Tetrachlorophthalimide and Their 2,3,4,5-Tetrachlorobenzamide Analogues: Synthesis, Their Glycosidase Inhibition and Anticancer Properties in View to Boron Neutron Capture Therapy” (Molecules, 2022):
Where two headings read alike, the source gives them in different places.

What was measured:
[1] = system: U87; experiment: MTT cell growth inhibition: U87; type: cell-based; conditions: U87 glioblastoma; for inhibition at 25 µM / GI50: Homo sapiens, U-87 MG; for inhibition at 25 µM / Percentage (%) Cell Growth Inhibition in response to 25 µM of Drug: 72 h, MTT; for inhibition at 25 µM: read-out: Percentage (%) Cell Growth Inhibition in response to 25 µM of Drug; for GI50: read-out: GI50 = Concentration (µM) that inhibits cell growth by 50%, dose response
Experimental: (§1) All test agents were prepared as stock solutions (20 mM) in dimethyl sulfoxide (DMSO) and stored at −20 °C. Cell lines used in the study included HT29 (colorectal carcinoma); U87, SJ-G2, (glioblastoma); MCF-7, (breast carcinoma); A2780 (ovarian carcinoma); H460 (lung carcinoma); A431 (skin carcinoma); Du145 (prostate carcinoma); BE2-C (neuroblastoma); MiaPaCa-2 (pancreatic carcinoma); and SMA560 (spontaneous murine astrocytoma), together with the one non-tumour-derived normal breast cell line (MCF10A). All cell lines were incubated in a humidified atmosphere 5% CO2 at 37 °C. The cancer cell lines were maintained in Dulbecco’s modified Eagle’s medium (DMEM; Sigma, Australia) supplemented with foetal bovine serum (10%), sodium pyruvate (10 mM), penicillin (100 IUmL^−1), streptomycin (100 µg mL^−1) and L-glutamine (2 mM).
(§2) Growth inhibition was determined by plating cells in duplicate in medium (100 µL) at a density of 2500–4000 cells per well in 96-well plates. On day 0 (24 h after plating), when the cells were in logarithmic growth, medium (100 µL) with or without the test agent was added to each well. After 72 h drug exposure, growth inhibitory effects were evaluated using the MTT (3-(4,5-dimethyltiazol-2-yl)-2,5-diphenyltetrazolium bromide) assay and absorbance read at 540 nm. The percentage growth inhibition was calculated at a fixed concentration of 25 µM, based on the difference between the optical density values on day 0 and those at the end of drug exposure. Each data point is the mean ± the standard error of the mean (SEM) calculated from three replicates which were performed on separate occasions and separate cell line passages.

[2] = system: snail β-mannosidase; experiment: Glycosidase inhibition, laboratory 1: snail β-mannosidase; type: biochemical; conditions: methanol
Text: (§3) The enzymes α-glucosidase (from yeast), β-glucosidases (from almond and bovine liver), α-galactosidase (from coffee beans), β-galactosidase (from bovine liver), α-mannosidase (from Jack bean), β-mannosidase (from snail), α-L-rhamnosidase (from Penicillium decumbens), α-L-fucosidase (from bovine kidney), trehalase (from porcine kidney), β-glucuronidases (from E. coli and bovine liver), amyloglucosidase (from A. niger), para-nitrophenyl glycosides, and various disaccharides were purchased from Sigma-Aldrich Co (St Louis, MO, USA).
(§4) Brush border membranes were prepared from the rat small intestine according to the method of Kessler et al. and were assayed at pH 6.8 for rat intestinal maltase using maltose. For rat intestinal maltase, porcine kidney trehalase, and A. niger amyloglucosidase activities, the reaction mixture contained 25 mM maltose and the appropriate amount of enzyme, and the incubations were performed for 10–30 min at 37 °C. The reaction was stopped by heating at 100 °C for 3 min. After centrifugation (600× g; 10 min), the resulting reaction mixture was added to the Glucose CII-test Wako (Wako Pure Chemical Ind., Osaka, Japan). The absorbance at 505 nm was measured to determine the amount of the released D-glucose. Other glycosidase activities were determined using an appropriate para-nitrophenyl glycoside as substrate at the optimum pH of each enzyme. The reaction mixture contained 2 mM of the substrate and the appropriate amount of enzyme. The reaction was stopped by addition of 400 mM Na2CO3. The released para-nitrophenol was measured spectrometrically at 400 nm. All reactions run in methanol.

[3] = system: HT29; experiment: MTT cell growth inhibition: HT29; type: cell-based; conditions: 72 h; for inhibition at 25 µM: Homo sapiens, HT-29, HT29 colon carcinoma, read-out: Percentage (%) Cell Growth Inhibition in response to 25 µM of Drug; for Percentage (%) Cell Growth Inhibition in response to 25 µM of Drug: HT29 colon carcinoma
Experimental: as §1, §2

[4] = system: MCF-7; experiment: MTT cell growth inhibition: MCF-7; type: cell-based; conditions: MCF-7 breast carcinoma; for inhibition at 25 µM / GI50: Homo sapiens; for inhibition at 25 µM: MCF7, read-out: Percentage (%) Cell Growth Inhibition in response to 25 µM of Drug; for inhibition at 25 µM / Percentage (%) Cell Growth Inhibition in response to 25 µM of Drug: 72 h, MTT; for GI50: MCF7, read-out: GI50 = Concentration (µM) that inhibits cell growth by 50%, dose response
Experimental: as §1, §2

[5] = system: H460; experiment: MTT cell growth inhibition: H460; type: cell-based; conditions: H460 lung carcinoma; for inhibition at 25 µM / GI50: Homo sapiens; for inhibition at 25 µM: NCI-H460, read-out: Percentage (%) Cell Growth Inhibition in response to 25 µM of Drug; for inhibition at 25 µM / Percentage (%) Cell Growth Inhibition in response to 25 µM of Drug: 72 h, MTT; for GI50: NCI-H460, read-out: GI50 = Concentration (µM) that inhibits cell growth by 50%, dose response
Experimental: as §1, §2

[6] = molecular target: T1, coffee beans α-galactosidase (Coffea arabica, UniProt Q42656); experiment: Glycosidase inhibition, laboratory 1: coffee beans α-galactosidase; type: biochemical; conditions: methanol
T1 construct: purchased Sigma-Aldrich Co
T1 sequence (Q42656 16-378): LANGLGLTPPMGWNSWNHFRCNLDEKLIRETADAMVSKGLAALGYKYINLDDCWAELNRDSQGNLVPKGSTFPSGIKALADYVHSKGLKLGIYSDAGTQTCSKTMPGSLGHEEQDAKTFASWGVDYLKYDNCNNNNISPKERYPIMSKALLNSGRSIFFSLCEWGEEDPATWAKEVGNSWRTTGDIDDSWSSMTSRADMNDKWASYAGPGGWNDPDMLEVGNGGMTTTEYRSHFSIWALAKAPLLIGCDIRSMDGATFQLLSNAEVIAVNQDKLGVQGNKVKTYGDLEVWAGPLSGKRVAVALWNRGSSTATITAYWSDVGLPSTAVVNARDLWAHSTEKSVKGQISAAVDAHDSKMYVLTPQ
Text: as §3, §4

[7] = molecular target: T2, Jack bean α-mannosidase (Canavalia ensiformis, UniProt C0HJB3); experiment: Glycosidase inhibition, laboratory 1: Jack bean α-mannosidase; type: biochemical; conditions: methanol
T2 construct: purchased Sigma-Aldrich Co
T2 sequence (C0HJB3 1-981): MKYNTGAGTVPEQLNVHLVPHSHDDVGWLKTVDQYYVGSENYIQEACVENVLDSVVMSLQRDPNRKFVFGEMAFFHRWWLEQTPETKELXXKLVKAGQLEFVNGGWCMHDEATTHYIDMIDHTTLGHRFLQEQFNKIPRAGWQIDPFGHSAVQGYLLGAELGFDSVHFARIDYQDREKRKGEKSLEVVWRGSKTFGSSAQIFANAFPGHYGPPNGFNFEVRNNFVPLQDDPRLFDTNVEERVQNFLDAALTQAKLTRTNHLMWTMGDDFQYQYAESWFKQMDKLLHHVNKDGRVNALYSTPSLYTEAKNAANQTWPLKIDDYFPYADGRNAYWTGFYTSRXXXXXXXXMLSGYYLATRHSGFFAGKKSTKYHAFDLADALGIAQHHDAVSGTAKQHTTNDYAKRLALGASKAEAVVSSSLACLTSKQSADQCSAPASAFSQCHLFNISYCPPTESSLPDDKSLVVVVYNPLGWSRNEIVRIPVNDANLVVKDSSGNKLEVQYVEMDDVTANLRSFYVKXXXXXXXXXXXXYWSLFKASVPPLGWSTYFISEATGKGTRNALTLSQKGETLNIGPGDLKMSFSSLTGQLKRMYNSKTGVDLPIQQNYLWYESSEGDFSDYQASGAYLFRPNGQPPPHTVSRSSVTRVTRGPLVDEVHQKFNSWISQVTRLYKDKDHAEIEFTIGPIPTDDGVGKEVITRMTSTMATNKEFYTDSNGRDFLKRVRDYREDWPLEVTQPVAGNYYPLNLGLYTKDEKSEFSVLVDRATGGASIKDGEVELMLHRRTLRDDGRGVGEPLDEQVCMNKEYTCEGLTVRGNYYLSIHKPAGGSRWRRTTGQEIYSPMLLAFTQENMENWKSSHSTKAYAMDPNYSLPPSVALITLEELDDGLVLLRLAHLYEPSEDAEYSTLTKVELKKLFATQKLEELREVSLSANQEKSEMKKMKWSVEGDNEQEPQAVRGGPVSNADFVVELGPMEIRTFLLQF
Text: as §3, §4

[8] = molecular target: rice α-glucosidase (Oryza sativa subsp. japonica, UniProt Q653V7); experiment: Glycosidase inhibition, laboratory 1: rice α-glucosidase; type: biochemical; conditions: methanol
Sequence of rice α-glucosidase (Q653V7 34-885): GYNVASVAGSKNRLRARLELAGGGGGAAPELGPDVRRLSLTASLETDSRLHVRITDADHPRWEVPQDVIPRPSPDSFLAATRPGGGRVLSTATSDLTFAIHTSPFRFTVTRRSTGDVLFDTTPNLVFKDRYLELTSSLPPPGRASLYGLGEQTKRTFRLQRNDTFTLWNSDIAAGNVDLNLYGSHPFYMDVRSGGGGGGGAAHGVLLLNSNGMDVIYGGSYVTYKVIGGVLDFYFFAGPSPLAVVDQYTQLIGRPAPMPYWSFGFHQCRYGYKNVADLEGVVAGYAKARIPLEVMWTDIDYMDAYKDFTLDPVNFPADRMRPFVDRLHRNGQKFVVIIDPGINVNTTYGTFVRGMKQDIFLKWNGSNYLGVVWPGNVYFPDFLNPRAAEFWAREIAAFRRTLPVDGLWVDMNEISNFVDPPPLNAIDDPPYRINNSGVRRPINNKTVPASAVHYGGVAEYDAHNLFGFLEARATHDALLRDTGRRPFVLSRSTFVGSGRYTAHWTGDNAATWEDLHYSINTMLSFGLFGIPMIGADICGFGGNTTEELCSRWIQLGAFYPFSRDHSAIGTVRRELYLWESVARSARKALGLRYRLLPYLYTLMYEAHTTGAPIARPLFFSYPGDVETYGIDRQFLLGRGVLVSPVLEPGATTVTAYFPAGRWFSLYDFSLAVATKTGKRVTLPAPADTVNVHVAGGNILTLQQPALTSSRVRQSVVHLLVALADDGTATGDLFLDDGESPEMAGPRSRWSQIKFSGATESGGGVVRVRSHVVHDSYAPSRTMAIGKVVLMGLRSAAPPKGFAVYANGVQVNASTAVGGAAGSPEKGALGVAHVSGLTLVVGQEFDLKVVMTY

[9] = molecular target: T3, A. niger amyloglucosidase (Aspergillus niger, UniProt P69328); experiment: Glycosidase inhibition, laboratory 1: amyloglucosidase; type: biochemical; conditions: for inhibition at 10 µM: read-out: inhibition % at 10 μM; for inhibition at 100 µM: read-out: inhibition % at 100 μM
T3 construct: purchased Sigma-Aldrich Co
T3 sequence (P69328 25-640): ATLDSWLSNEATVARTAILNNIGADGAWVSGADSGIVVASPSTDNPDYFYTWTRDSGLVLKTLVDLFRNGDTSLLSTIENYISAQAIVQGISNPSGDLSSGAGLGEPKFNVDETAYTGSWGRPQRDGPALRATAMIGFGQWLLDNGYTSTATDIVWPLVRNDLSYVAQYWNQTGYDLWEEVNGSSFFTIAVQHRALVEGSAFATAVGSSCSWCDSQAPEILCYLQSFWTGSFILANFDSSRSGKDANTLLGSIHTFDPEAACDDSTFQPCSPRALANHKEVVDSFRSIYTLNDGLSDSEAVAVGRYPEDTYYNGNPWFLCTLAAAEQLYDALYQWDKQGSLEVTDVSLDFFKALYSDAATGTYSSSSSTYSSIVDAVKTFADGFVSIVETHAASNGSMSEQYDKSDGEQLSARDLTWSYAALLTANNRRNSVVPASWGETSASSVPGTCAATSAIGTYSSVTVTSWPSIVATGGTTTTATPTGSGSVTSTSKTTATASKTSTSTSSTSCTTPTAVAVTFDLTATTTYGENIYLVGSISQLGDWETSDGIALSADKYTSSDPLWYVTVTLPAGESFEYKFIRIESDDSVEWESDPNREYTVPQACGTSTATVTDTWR
Text: as §3, §4

[10] = A. niger amyloglucosidase, 100 μM, methanol

Compound | inhibition at 25 µM [1] [%] | inhibition % at 100 μM [2] | inhibition at 25 µM [3] [%] | inhibition at 25 µM [4] [%] | inhibition at 25 µM [5] [%] | GI50 [1] [µM] | GI50 [4] [µM] | GI50 [5] [µM] | inhibition at 100 µM ([6]; 100 μM) [%] | inhibition at 100 µM ([7]; 100 μM) [%] | inhibition at 100 µM ([8]; 100 μM) [%] | further results
N[C@@H](Cc1ccc(B(O)O)cc1)C(=O)O [BPA, 4-borono-L-phenylalanine, reference compound] | < 0 | ^cNI ^d (2.1%) | 14 | < 0 | 7 ± 8 |  |  |  |  |  |  | 
N[C@@H](Cc1ccc(B(O)O)cc1)C(=O)O [^10B-BPA, reference compound] |  | ^cNI ^d (0.3%) |  |  |  |  |  |  |  |  |  | Percentage (%) Cell Growth Inhibition in response to 25 µM of Drug [1]: <0%; inhibition % at 100 μM ([6]; 100 μM): ^cNI ^d (1.2%); Percentage (%) Cell Growth Inhibition in response to 25 µM of Drug [3]: 15 ± 4%; Percentage (%) Cell Growth Inhibition in response to 25 µM of Drug [4]: 1 ± 3%; inhibition % at 100 μM ([7]; 100 μM): ^cNI ^d (0%); Percentage (%) Cell Growth Inhibition in response to 25 µM of Drug [5]: 8 ± 5%; inhibition % at 100 μM ([8]; 100 μM): ^cNI ^d(0%); inhibition % at 100 μM [9, 10]: ^cNI ^d (0%)
CC1(C)OB(c2cccc(CN3C(=O)c4c(Cl)c(Cl)c(Cl)c(Cl)c4C3=O)c2)OC1(C)C [meta 3, 4,5,6,7-Tetrachloro-2-(3-(4,4,5,5-tetramethyl-1,3,2-dioxaborolan-2-yl)benzyl)isoindoline-1,3-dione] | 70 ± 8 |  | 53 ± 3 | 67 ± 7 | 42 ± 6 | 19 ± 1.5 | 23 ± 3.7 | 33 ± 2.3 |  |  |  | inhibition at 10 µM [6]: 3.5%; inhibition % at 10 μM [2]: ^cNI ^d (1.1%); inhibition at 10 µM [7]: 2.7%; inhibition at 10 µM [8]: 5.1%; inhibition at 10 µM [9]: 3.2%
CC1(C)OB(c2cccc(NC(=O)c3cc(Cl)c(Cl)c(Cl)c3Cl)c2)OC1(C)C [meta 5, 2,3,4,5-tetrachloro-N-(3-(4,4,5,5-tetramethyl-1,3,2-dioxaborolan-2-yl)phenyl)benzamide] | < 0 | ^aNI ^b (39.1%) | 10 ± 7 | 16 ± 4 | 18 ± 6 |  |  |  | 30.2 | 7.6 | 45.5 | inhibition at 100 µM [9, 10]: 2.8%
CC1(C)OB(c2ccccc2NC(=O)c2cc(Cl)c(Cl)c(Cl)c2Cl)OC1(C)C [ortho 5, 2,3,4,5-Tetrachloro-N-(2-(4,4,5,5-tetramethyl-1,3,2-dioxaborolan-2-yl)phenyl)benzamide] | 58 ± 5 |  | 98 ± 2 | > 100 | > 100 | 25 ± 2.6 | 12 ± 1.2 | 13 ± 1 |  |  |  | inhibition at 10 µM [6]: 0%; inhibition % at 10 μM [2]: ^cNI ^d (0%); inhibition at 10 µM [7]: 3.4%; inhibition at 10 µM [8]: 0%; inhibition at 10 µM ([9]; A. niger amyloglucosidase, 10 μM, methanol): 0%
CC1(C)OB(c2ccccc2CNC(=O)c2cc(Cl)c(Cl)c(Cl)c2Cl)OC1(C)C [ortho 8, 2,3,4,5-tetrachloro-N-(2-(4,4,5,5-tetramethyl-1,3,2-dioxaborolan-2-yl)benzyl)benzamide] | < 0 | ^aNI ^b (39%) | 5 ± 10 | < 0 | 0 |  |  |  | 114 | 12.5 | 0 | inhibition at 100 µM [9]: 0%
CC1(C)OB(c2ccc(CN3C(=O)c4c(Cl)c(Cl)c(Cl)c(Cl)c4C3=O)cc2)OC1(C)C [para 3, 4,5,6,7-Tetrachloro-2-(4-(4,4,5,5-tetramethyl-1,3,2-dioxaborolan-2-yl)benzyl)isoindoline-1,3-dione] | > 100 | ^aNI ^b (0%) | 99 ± 2 | > 100 | 100 ± 2 | 4.2 ± 1 | 3 ± 1.3 | 13 ± 0.33 | 0.2 | 0 | 5.6 | inhibition at 100 µM [9]: 1%
CC1(C)OB(c2ccc(NC(=O)c3cc(Cl)c(Cl)c(Cl)c3Cl)cc2)OC1(C)C [para 5, 2,3,4,5-tetrachloro-N-(4-(4,4,5,5-tetramethyl-1,3,2-dioxaborolan-2-yl)phenyl)benzamide] | 21 ± 16 | ^aNI ^b (30.4%) | 69 ± 7 | 42 ± 5 | 54 ± 2 |  |  |  | 35.8 | 19.3 | 0 | inhibition at 100 µM [9, 10]: 0%
Borocaptate sodium [BSH, reference compound] |  |  |  |  |  |  |  |  |  |  |  | Percentage (%) Cell Growth Inhibition in response to 25 µM of Drug [1]: <0%; inhibition % at 1000 μM ([6]; 1000 μM): ^aNI ^b (12.3%); inhibition % at 1000 μM ([2]; 1000 μM): ^aNI ^b (19.2%); Percentage (%) Cell Growth Inhibition in response to 25 µM of Drug [3]: 3 ± 2%; Percentage (%) Cell Growth Inhibition in response to 25 µM of Drug [4]: 15 ± 3%; inhibition % at 1000 μM ([7]; 1000 μM): ^aNI ^b (7.9%); Percentage (%) Cell Growth Inhibition in response to 25 µM of Drug [5]: 8 ± 2%; inhibition % at 1000 μM ([8]; 1000 μM): ^aNI ^b(0%); inhibition % at 1000 μM ([9]; A. niger amyloglucosidase, 1000 μM, methanol): ^aNI ^b (0%)
